In US20100311714A1, “1H-IMIDAZO[4,5-c]QUINOLINONE COMPOUNDS” (priority 2009, published 2010):
Like-named read-outs stand apart in the source and are kept apart here.

Assays:
[1] = tested on: S6 Ribosomal Protein phosphorylation Ser235/236 in TSC1 null mouse embryo fibroblast (MEF) cells; assay: Reverse protein array, S6 Ribosomal Protein phosphorylation in TSC1 null MEF cells; assay type: cell-based; conditions: 1 h, TSC1-/- MEFs, 60 minutes
Experimental: TSC1−/− MEFs cells (provided by D. Kwiatkowski), were cultivated in Dulbecco's modified Eagle's medium (DMEM high Glucose, GIBCO, cat. No. 41956-039) supplemented with 10% heat inactivated fetal bovine calf serum (Amimed, cat. No. 2-01F16-I), 1% L-Glutamine (Invitrogen, cat. No. 25030-02), 1% penicillin-streptomycin (GIBCO, cat. No. 15140-114) at 37° C. in a 5% CO2 and 95% relative humidity atmosphere incubator.
The TSC1−/− cells were trypsinized and counted with a CASY TT cell counter (Schärfe System GmbH, Reutlingen Germany). The cells were diluted in fresh DMEM complete medium and 0.75×10^4 cells/150 μl/well seeded in 96-well TPP-tissue culture plates (TPP, cat. No. 92096). The plates were incubated at 37° C. and 5% CO2 under humidified condition for at least 20 h. Working solutions were prepared freshly as serial 8 step dilutions (vol/vol) in DMSO on the day of the experiment. The working solutions were further diluted 1/5000 in cell culture medium to get final compound concentrations of […]. The final DMSO concentration was kept constant at 0.02%. cell culture medium containing 0.02% DMSO was used as vehicle treatment control. Post incubation, the cells were treated with the serial compound dilution. 50 μl of the compound medium mixture was added to the wells containing cells and 150 μl DMEM medium and incubated for 60 minutes (37° C., 5% CO2). After 60 minutes of incubation, the medium mixture was quickly removed by aspiration. For cell lysis, a mixture of 10% CLB1 CeLyA lysis buffer (Zeptosens, cat. No. 9000), 90% CSBL1 CeLyA spotting buffer (Zeptosens, cat. No. 9020) was freshly prepared and supplemented with 1% Octyl β-D-glucopyranoside (SIGMA, cat. No. 08001-5G) and 1 mM Na-Orthovanadate (Sigma, cat No. S-6508). 50 μl of the described lysis buffer mix was added to each well, followed by 10 minutes of incubation on ice. After an additional freeze-thaw cycle, another 50 μl of the lysis buffer mix without Octyl β-D-glucopyranoside was added to the wells, and 90 μl of the cell lysate was transferred to a 96-well V-bottom plate (Fisher Scientific, cat. No. 6067Y), followed by a centrifugation step (5 min, 1500 rpm at 19° C. in an Eppendorf 5810R centrifuge) to remove the unlysed cell debris.
The spotting of the chips follows the previous described method.
The signal detection and the data analysis follows the previous described method using the pS6 ribosomal protein Ser235/236 (CST, cat. No. #2211) as a primary antibody.

[2] = tested on: PKB Ser473 phosphorylation in Rat1-myr-HA-p110 alpha cells; assay: Reverse protein array, PKB Ser473 phosphorylation in Rat1-myr-HA-p110 alpha cells; assay type: cell-based; conditions: Rattus norvegicus, 0.5 h, 30 minutes compound incubation, read-out: p-PKB/IC50_alpha
Experimental: (§1) No. 15140-114) and 10 μg/ml Puromycine (Sigma, cat. No. P9620).
(§2) The Rat1-myr-HA-p110 alpha, beta and delta cells were trypsinized and counted with a CASY TT cell counter (Schärfe System GmbH, Reutlingen Germany). The cells were diluted in fresh DMEM complete medium and 3×10^4 cells/150 μl/well seeded in 96-well TPP-tissue culture plates (TPP, cat. No. 92096). The plates were incubated at 37° C. and 5% CO2 under humidified condition for at least 20 h. Compound of formula I working solutions were prepared freshly as serial 8 step dilutions (vol/vol) in DMSO on the day of the experiment. The working solutions were further diluted 1/500 in cell culture medium to get final compound concentrations of 10, 3.333, 1.111, 0.370, 0.123, 0.041, 0.014, 0.005 μM. The final DMSO concentration was kept constant at 0.2%. cell culture medium containing 0.2% DMSO was used as vehicle treatment control. Post incubation, the cells were treated with the serial compound dilution. 50 μl of the compound medium mixture was added to the wells containing cells and 150 μl DMEM medium and incubated for 30 minutes (37° C., 5% CO2). After 30 minutes of incubation, the medium mixture was quickly removed by aspiration. For cell lysis, a mixture of 10% CLB1 CeLyA lysis buffer (Zeptosens, cat. No. 9000), 90% CSBL1 CeLyA spotting buffer (Zeptosens, cat. No. 9020) was freshly prepared and supplemented with 1% Octyl β-D-glucopyranoside (SIGMA, cat. No. 08001-5G) and 1 mM Na-Orthovanadate (Sigma, cat No. S-6508). 50 μl of the described lysis buffer mix was added to each well, followed by 10 minutes of incubation on ice. After an additional freeze-thaw cycle, another 50 μl of the lysis buffer mix without Octyl β-D-glucopyranoside was added to the wells, and 90 μl of the cell lysate was transferred to a 96-well V-bottom plate (Fisher Scientific, cat. No. 6067Y), followed by a centrifugation step (5 min, 1500 rpm at 19° C. in an Eppendorf 5810R centrifuge) to remove the unlysed cell debris.
(§3) The samples were spotted onto ZeptoMARK® PWG protein microarray chips (Zeptosens, Witterswil, Switzerland) with the piezoelectric microdispense-based, non-contact Nano-Plotter 2.1 (GeSiM, Grosserkmannsdorf, Germany). Each sample was spotted at 4 different sample concentrations (d1=100%, d2=75%, d3=50%, d4=25%) by diluting the cell lysate with the corresponding volume of lysis buffer mix. After spotting the ZeptoMARK® protein microarrays, the chips are incubated for 1 hour at 37° C. To receive a uniform blocking result, the CeLyA blocking buffer BB1 (Zeptosens, cat. No. 9040) is administered via an ultrasonic nebulizer. After 20 minutes of blocking the chips are extensively rinsed with deionized water (Milli-Q quality, 18MΩ×cm) and dried in a nitrogen air flow.
(§4) After the sample spotting and blocking procedure, the ZeptoMARK® chips were transferred to the ZeptoCARRIER (Zeptosens, cat. No. 1100), whose six flow cells individually address the six arrays on a chip, and washed twice with 200 μl CAB1 CeLyA assay buffer (Zeptosens, cat. No. 9032). The assay buffer was then aspirated and each compartment incubated with 100 μl of the primary target antibody (pAkt Ser473; CST#9271) at RT over night. Post incubation, the primary antibody was removed, the arrays washed twice with CAB1 buffer and further incubated with 100 μl of Alexa fluor 647-labeled anti rabbit IgG Fab fragments (Invitrogen; #Z25305) for one hour at RT in the dark. After incubation, the arrays were washed twice with 200 μl CAB1 buffer. The fluorescence of the target-bound Fab fragments is read out on the ZeptoReader (Zeptosens, Witterswil, Switzerland) using a laser (excitation wavelength 635 nm) and a CCD camera. The fluorescence signal was assessed with exposure times of 1, 3, 5 and 10 seconds, depending on the intensity of the signal. The resulting four images taken per array are stored as 16-bit TIF files. […]

[3] = Parallel Artificial Membrane Permeability Assay (PAMPA) at pH 6.8; assay type: physicochemical
Excerpt: (§5) The physicochemical properties of relevance for the absorption of the compound, such as the solubility and the membrane permeability, especially at a pH close to neutral pH can be measured using the procedure as described by L. ZHOU et al. in JOURNAL OF PHARMACEUTICAL SCIENCES, VOL. 96, NO. 11, p. 3052-3071 (2007) for the solubility at pH 6.8 and the procedure as described by F. Wohnsland and B. Faller in Journal of Medicinal Chemistry Vol 44, p. 923-930 (2001) for the Parallel Artificial Membrane Permeability Assay (PAMPA) at pH 6.8.
The following permeability log Pe was measured for compound of formula (I) as exemplified below: […]

[4] = tested on: PKB Ser473 phosphorylation in Rat1-myr-HA-p110 delta cells; assay: Reverse protein array, PKB Ser473 phosphorylation in Rat1-myr-HA-p110 delta cells; assay type: cell-based; conditions: Rattus norvegicus, 0.5 h, 30 minutes compound incubation, read-out: p-PKB/IC50_delta
Experimental: as §1, §2, §3, §4

[5] = tested on: PKB Ser473 phosphorylation in Rat1-myr-HA-p110 beta cells; assay: Reverse protein array, PKB Ser473 phosphorylation in Rat1-myr-HA-p110 beta cells; assay type: cell-based; conditions: Rattus norvegicus, 0.5 h, 30 minutes compound incubation, read-out: p-PKB/IC50_beta
Experimental: as §1, §2, §3, §4

[6] = High-throughput equilibrium solubility at pH 6.8; assay type: physicochemical; conditions: pH 6.8, aqueous buffer, thermodynamic from solid; read-out: HT-Eq Sol/pH 6.8
Excerpt: as §5

Compound	IC50 ([1]; read-out: p-S6)	IC50 [2]	HT-perm/logPe pH6.8 [3]	IC50 [4]	IC50 [5]	IC50 ([1]; read-out: p-S6 IC50)	HT-Perm logPe pH6.8 [3]	solubility thermodynamic [6]
CCOc1ccc(-c2ccc3ncc4c(c3c2)n(-c2ccc(OC)nc2OC)c(=O)n4C)cn1 [Example 8.2, 1-(2,6-Dimethoxy-pyridin-3-yl)-8-(6-ethoxy-pyridin-3-yl)-3-methyl-1,3-dihydro-imidazo[4,5-c]quinolin-2-one]	7.69 nM	7.36 nM	−4.3	113 nM	34.6 nM			
COCCOc1cncc(-c2ccc3ncc4c(c3c2)n(-c2ccc(OC)nc2OC)c(=O)n4C)c1 [Example 8.8, 1-(2,6-Dimethoxy-pyridin-3-yl)-8-[5-(2-methoxy-ethoxy)-pyridin-3-yl]-3-methyl-1,3-dihydro-imidazo[4,5-c]quinolin-2-one]		72.6 nM		143 nM	115 nM	7 nM	−3.8	
CNc1ncc(-c2ccc3ncc4c(c3c2)n(-c2cncc(C)c2)c(=O)n4C)cn1 [Example 17.2, 3-Methyl-8-(2-methylamino-pyrimidin-5-yl)-1-(5-methyl-pyridin-3-yl)-1,3-dihydro-imidazo[4,5-c]quinolin-2-one]		46.8 nM		206 nM	94.6 nM	10 nM		
CCOc1ccc(-c2ccc3ncc4c(c3c2)n(-c2ccc(OC)nc2C)c(=O)n4C)cn1 [Example 11.1, 8-(6-Ethoxy-pyridin-3-yl)-1-(6-methoxy-2-methyl-pyridin-3-yl)-3-methyl-1,3-dihydro-imidazo[4,5-c]quinolin-2-one]	10.6 nM	5.01 nM	−3.8	92.1 nM	11.7 nM			
Cc1cccnc1-n1c(=O)n(C)c2cnc3ccc(-c4ccc(OCCCN(C)C)nc4)cc3c21 [Example 3.7, 8-[6-(3-Dimethylamino-propoxy)-pyridin-3-yl]-3-methyl-1-(3-methyl-pyridin-2-yl)-1,3-dihydro-imidazo[4,5-c]quinolin-2-one]		398 nM						> 469 µg/mL
Cc1ncccc1-n1c(=O)n(C)c2cnc3ccc(-c4ccc5nccn5c4)cc3c21 [Example 2.23, 8-Imidazo[1,2-a]pyridin-6-yl-3-methyl-1-(2-methyl-pyridin-3-yl)-1,3-dihydro-imidazo[4,5-c]quinolin-2-one]		64.1 nM		1060 nM	273 nM	37 nM	−5.3	
CCNc1cc(-c2ccc3ncc4c(c3c2)n(-c2ccc(N3CC[C@H](O)C3)nc2C)c(=O)n4C)cnc1CO [Example 32.6, 8-(5-Ethylamino-6-hydroxymethyl-pyridin-3-yl)-1-[6-((S)-3-hydroxy-pyrrolidin-1-yl)-2-methyl-pyridin-3-yl]-3-methyl-1,3-dihydro-imidazo[4,5-c]quinolin-2-one]		24.3 nM		83.2 nM	39.7 nM	8.6 nM		
COc1ncc(-c2ccc3ncc4c(c3c2)n(-c2ccc(C(C)(C)O)nc2C)c(=O)n4C)c(OC)n1 [Example 31.3, 8-(2,4-Dimethoxy-pyrimidin-5-yl)-1-[6-(1-hydroxy-1-methyl-ethyl)-2-methyl-pyridin-3-yl]-3-methyl-1,3-dihydro-imidazo[4,5-c]quinolin-2-one]		5.3 nM		26.4 nM	132 nM	1 nM	−4.1	
Cc1nc(N2CC[C@@H](O)C2)ccc1-n1c(=O)n(C)c2cnc3ccc(-c4cncc(C(C)(C)C#N)c4)cc3c21 [Example 34.5, 2-(5-{1-[6-((R)-3-Hydroxy-pyrrolidin-1-yl)-2-methyl-pyridin-3-yl]-3-methyl-2-oxo-2,3-dihydro-1H-imidazo[4,5-c]quinolin-8-yl}-pyridin-3-yl)-2-methyl-propionitrile]		30.3 nM		84.2 nM	31 nM	2 nM		
CNc1ccc(-c2ccc3ncc4c(c3c2)n(-c2ccc(OC)nc2OC)c(=O)n4C)cn1 [Example 8.3, 1-(2,6-Dimethoxy-pyridin-3-yl)-3-methyl-8-(6-methylamino-pyridin-3-yl)-1,3-dihydro-imidazo[4,5-c]quinolin-2-one]	1.05 nM	4.57 nM	−3.8	19.5 nM	< 4.57 nM			
